We go through one compound from PMC6934184, “Selective DNA-PKcs inhibition extends the therapeutic index of localized radiotherapy and chemotherapy” (The Journal of Clinical Investigation, 2019).

In one data set the test system is SJSA-1 tumor xenografts. The experiment in a line: subcutaneous SJSA-1 xenograft with parenteral etoposide. The format is in vivo, CD-1 nude mice. How it is done:
Combining systemic administration of etoposide + NU5455 in vivo
SJSA1 cells (1 x 10^7 cells/mouse in 50 µl, 50% v/v Matrigel) were implanted s.c. into the right flank of female CD-1 nude mice. When tumor volumes reached 103-121 mm3 mice were treated daily, for five consecutive days, with NU5455 (30 mg/kg or 100 mg/kg once -daily p.o. in NMP:Encapsin (30% aq):PEG4000 (1:6:3 v/v/v) ) or vehicle, followed immediately with etoposide (5 mg/kg i.p. in saline). Body weight and tumor volume measurements were taken daily during treatment and three times per week post -treatment. Tumor volume was calculated from two-dimensional electronic caliper measurements (Mitutoyo) using the equation ‘width2 x length/2’, where width was the smaller side, and length the longer dimension of the tumor. Mice were humanely killed when; (i) an adverse effect on clinical condition was evident, (ii) tumor bilateral measurements reached 10 mm x 10 mm, (iii) a tumor measurement in any di mension reached 15 mm, or (iv) at study termination. […]

Data set [1] deals with skin immediately surrounding the tumor. Put plainly: γH2AX foci in skin surrounding subcutaneous Calu-6 tumor. The format is in vivo, mouse. The settings on record: 5 hours after 3.3 Gy, 30 mg/kg oral, P = 0.09. How it is done: Subcutaneous non–small cell lung cancer xenografts were generated in CD-1 nude or BALB/c nude mice using A549 and Calu-6 cells, respectively, as previously described ([53]). When tumors reached 100 mm^3, mice were randomized into 4 groups (n = 7–9 per group) to receive (a) vehicle (orally) 30 minutes before mock radiation, (b) NU5455 (30 mg/kg orally) 30 minutes before mock radiation, (c) targeted tumor radiation at a single dose of 3.3 or 10 Gy, or (d) NU5455 (30 mg/kg orally) 30 minutes before 3.3 Gy or 10 Gy targeted tumor radiation. […]
NSCLC subcutaneous xenografts were generated as previously described ( 53). […] Mouse weights and tumor volumes (1/2 x length x width x depth) were measured three times a week.
Targeted radiotherapy in subcutaneous and orthotopic NSCLC xenograft models When subcutaneous xenografts reached 100 mm3, mice were randomized into four groups (n = 7 - 11/group): (i) N-Methyl-2-pyrrolidone (NMP): 30% Encapsin : PEG400 (1:6:3 v/v/v) vehicle p.o. 30 minutes prior to mock radiation. […] The remaining mice were monitored for tumor growth until the sizes of tumo rs reached 400 mm 3 or up to 38 days after initiation of […]
Tissues were fixed in 4% paraformaldehyde (PFA) and paraffin -embedded. […] The percentage of γH2AX and 53BP1 positive nuclei in lung epithelial cells was quantified manually in normal lung samples across 5 randomly-chosen fields of view per […]

SMILES strings stand for the structures. “And” between values parts separate entries of the source, which are not always exact repeats. Equal values may be shown once. “Also recorded” adds a separate entry of the source.

Turning to `CN(C(=O)CN1CCOCC1)c1ccc2sc3c(-c4cccc5c(=O)cc(N6CC7CCC(C6)O7)oc45)cccc3c2c1` [NU5455], the “enhancement of etoposide antitumor effect” value with SJSA-1 tumor xenografts (NU5455 30 mg/kg oral + etoposide 5 mg/kg i.p., 5 consecutive days) was “does not significantly enhance; also recorded: did not enhance it significantly”. Further, the body weight entry in the data set on SJSA-1 tumor xenografts (NU5455 100 mg/kg oral + etoposide 5 mg/kg i.p.) is “increased weight loss by day 8”. Besides, the “enhancement of etoposide antitumor activity” value in the data set with SJSA-1 tumor xenografts (NU5455 100 mg/kg oral + etoposide 5 mg/kg i.p., 5 sequential days) is “potentiated significantly”. Also, in the data set with SJSA-1 tumor xenografts (day 8, NU5455 100 mg/kg oral + etoposide 5 mg/kg i.p.), the “animals requiring humane intervention (>15% body-weight loss)” value is 2 of 10 and 2. The “tolerability, NU5455 alone” value with SJSA-1 tumor xenografts (greater dose (100 mg/kg oral)) was “well tolerated by itself”. The “radiation-induced γH2AX foci, fold augmented with NU5455” value in data set [1] came to 1.6 fold.
